Laboratory results as given in ChEMBL document CHEMBL2375322, “Synthesis using microwave irradiation and antibacterial evaluation of new N,O-acetals and N,S-acetals derived from 2-amino-1,4-naphthoquinones” (2013).
Values after ≈ are worked out from the molar mass of the structure shown. Active and inactive are the calls of the source. The rule behind the calls is not given here.

Columns and labels:
Assay type in all cases: functional
[1] = tested on: Staphylococcus haemolyticus; assay: Antibacterial activity against oxacillin-resistant Staphylococcus haemolyticus after 18 to 24 hrs by disc diffusion assay
[2] = tested on: Staphylococcus epidermidis; assay: Antibacterial activity against oxacillin-resistant Staphylococcus epidermidis after 18 to 24 hrs by disc diffusion assay
[3] = tested on: Staphylococcus aureus; assay: Antibacterial activity against Staphylococcus aureus after 18 to 24 hrs by disc diffusion assay
[4] = tested on: Staphylococcus aureus; assay: Antibacterial activity against oxacillin-resistant Staphylococcus aureus after 18 to 24 hrs by disc diffusion assay
[5] = tested on: Staphylococcus aureus; assay: Antibacterial activity against methicillin-resistant Staphylococcus aureus after 18 to 24 hrs by disc diffusion assay
[6] = tested on: Klebsiella pneumoniae; assay: Antibacterial activity against Klebsiella pneumoniae after 18 to 24 hrs by disc diffusion assay
[7] = tested on: Staphylococcus aureus; assay: Antibacterial activity against Staphylococcus aureus ATCC 25923 after 18 to 24 hrs by disc diffusion assay
[8] = tested on: Pseudomonas aeruginosa; assay: Antibacterial activity against Pseudomonas aeruginosa after 18 to 24 hrs by disc diffusion assay
[9] = tested on: Staphylococcus haemolyticus; assay: Antibacterial activity against oxacillin-resistant Staphylococcus haemolyticus after 18 to 24 hrs by broth macrodilution method
[10] = tested on: Staphylococcus aureus; assay: Antibacterial activity against Staphylococcus aureus after 18 to 24 hrs by broth macrodilution method
[11] = tested on: Staphylococcus aureus; assay: Antibacterial activity against Staphylococcus aureus ATCC 25923 after 18 to 24 hrs by broth macrodilution method
[12] = tested on: Klebsiella pneumoniae; assay: Antibacterial activity against Klebsiella pneumoniae after 18 to 24 hrs by broth macrodilution method
[13] = tested on: Staphylococcus aureus; assay: Antibacterial activity against methicillin-resistant Staphylococcus aureus after 18 to 24 hrs by broth macrodilution method
[14] = tested on: Staphylococcus aureus; assay: Antibacterial activity against oxacillin-resistant Staphylococcus aureus after 18 to 24 hrs by broth macrodilution method
[15] = tested on: Pseudomonas aeruginosa; assay: Antibacterial activity against Pseudomonas aeruginosa after 18 to 24 hrs by broth macrodilution method
[16] = tested on: Staphylococcus epidermidis; assay: Antibacterial activity against oxacillin-resistant Staphylococcus epidermidis after 18 to 24 hrs by broth macrodilution method

SMILES | inhibition [1] | inhibition [2] | inhibition [3] | inhibition [4] | inhibition [5] | inhibition [6] | inhibition [7] | inhibition [8] | other results
Cc1ccc(SCNC2=CC(=O)c3ccccc3C2=O)cc1 | inactive | inactive | inactive | inactive | inactive | inactive | inactive | inactive | 
COCNC1=CC(=O)c2ccccc2C1=O |  |  |  |  |  |  |  |  | diameter of the inhibition zone (DIZ) [1]: 20 mm; MIC [9]: 16 mg/L (≈ 73.7 µM); MIC [10]: 16 mg/L (≈ 73.7 µM); diameter of the inhibition zone (DIZ) [2]: 14 mm; MIC [11]: 16 mg/L (≈ 73.7 µM); diameter of the inhibition zone (DIZ) [3]: 24 mm; MIC [12]: 256 mg/L (≈ 1180 µM); diameter of the inhibition zone (DIZ) [4]: 18 mm; diameter of the inhibition zone (DIZ) [5]: 16 mm; diameter of the inhibition zone (DIZ) [6]: 17 mm; MIC [13]: 16 mg/L (≈ 73.7 µM); MIC [14]: 16 mg/L (≈ 73.7 µM); MIC [15]: ≥ 256 mg/L; diameter of the inhibition zone (DIZ) [7]: 17 mm; diameter of the inhibition zone (DIZ) [8]: 0 mm; MIC [16]: 8 mg/L (≈ 36.8 µM)
CC(C)(C)OCNC1=CC(=O)c2ccccc2C1=O | inactive | inactive | inactive | inactive | inactive | inactive | inactive | inactive | 
C#CCOCNC1=CC(=O)c2ccccc2C1=O |  |  |  |  |  |  |  |  | diameter of the inhibition zone (DIZ) [1]: 18 mm; MIC [9]: 32 mg/L (≈ 133 µM); MIC [10]: 32 mg/L (≈ 133 µM); diameter of the inhibition zone (DIZ) [2]: 10 mm; MIC [11]: 32 mg/L (≈ 133 µM); diameter of the inhibition zone (DIZ) [3]: 20 mm; MIC [12]: ≥ 256 mg/L; diameter of the inhibition zone (DIZ) [4]: 12 mm; diameter of the inhibition zone (DIZ) [5]: 16 mm; diameter of the inhibition zone (DIZ) [6]: 0 mm; MIC [13]: 64 mg/L (≈ 265 µM); MIC [14]: 256 mg/L (≈ 1060 µM); MIC [15]: 16 mg/L (≈ 66.3 µM); diameter of the inhibition zone (DIZ) [7]: 16 mm; diameter of the inhibition zone (DIZ) [8]: 18 mm; MIC [16]: 16 mg/L (≈ 66.3 µM)
CSc1ccc(SCNC2=CC(=O)c3ccccc3C2=O)cc1 | inactive | inactive | inactive | inactive | inactive | inactive | inactive | inactive | 
O=C(O)c1cn(C2CC2)c2cc(N3CCNCC3)c(F)cc2c1=O [CIPROFLOXACIN] |  |  |  |  |  |  |  |  | MIC [12]: 1 mg/L (≈ 3.02 µM); diameter of the inhibition zone (DIZ) [6]: 22 mm; MIC [15]: 1 mg/L (≈ 3.02 µM); diameter of the inhibition zone (DIZ) [8]: 22 mm
CC(C)OCNC1=CC(=O)c2ccccc2C1=O | inactive | inactive | inactive | inactive | inactive | inactive | inactive | inactive | 
O=C1C=C(NCOCc2cn(-c3ccccc3)nn2)C(=O)c2ccccc21 | inactive | inactive | inactive | inactive | inactive | inactive | inactive | inactive | 
CN[C@H](CC(C)C)C(=O)N[C@H]1C(=O)N[C@@H](CC(N)=O)C(=O)N[C@H]2C(=O)N[C@H]3C(=O)N[C@H](C(=O)N[C@H](C(=O)O)c4cc(O)cc(O)c4-c4cc3ccc4O)[C@H](O)c3ccc(c(Cl)c3)Oc3cc2cc(c3O[C@@H]2O[C@H](CO)[C@@H](O)[C@H](O)[C@H]2O[C@H]2C[C@](C)(N)[C@H](O)[C@H](C)O2)Oc2ccc(cc2Cl)[C@H]1O [VANCOMYCIN] |  |  |  |  |  |  |  |  | diameter of the inhibition zone (DIZ) [1]: 16 mm; MIC [9]: 2 mg/L (≈ 1.38 µM); diameter of the inhibition zone (DIZ) [2]: 16 mm; diameter of the inhibition zone (DIZ) [3]: 16 mm; diameter of the inhibition zone (DIZ) [4]: 16 mm; diameter of the inhibition zone (DIZ) [5]: 16 mm; diameter of the inhibition zone (DIZ) [7]: 16 mm
Cc1ccccc1SCNC1=CC(=O)c2ccccc2C1=O | inactive | inactive | inactive | inactive | inactive | inactive | inactive | inactive | 
O=C1C=C(NCSc2ccccc2)C(=O)c2ccccc21 | inactive | inactive | inactive | inactive | inactive | inactive | inactive | inactive | 
CCOCNC1=CC(=O)c2ccccc2C1=O |  |  |  |  |  |  |  |  | diameter of the inhibition zone (DIZ) [1]: 16 mm; MIC [9]: 64 mg/L (≈ 277 µM); MIC [10]: 4 mg/L (≈ 17.3 µM); diameter of the inhibition zone (DIZ) [2]: 10 mm; MIC [11]: 8 mg/L (≈ 34.6 µM); diameter of the inhibition zone (DIZ) [3]: 18 mm; MIC [12]: ≥ 256 mg/L; diameter of the inhibition zone (DIZ) [4]: 17 mm; diameter of the inhibition zone (DIZ) [5]: 14 mm; diameter of the inhibition zone (DIZ) [6]: 0 mm; MIC [13]: 32 mg/L (≈ 138 µM); MIC [14]: 32 mg/L (≈ 138 µM); MIC [15]: 128 mg/L (≈ 554 µM); diameter of the inhibition zone (DIZ) [7]: 15 mm; diameter of the inhibition zone (DIZ) [8]: 14 mm; MIC [16]: 16 mg/L (≈ 69.2 µM)
CC1=C(NCSc2ccccc2)C(=O)c2ccccc2C1=O | inactive | inactive | inactive | inactive | inactive | inactive | inactive | inactive | 
O=C1C=C(NCSc2ccc(F)cc2)C(=O)c2ccccc21 | inactive | inactive | inactive | inactive | inactive | inactive | inactive | inactive | 
O=C1C=C(NCOCc2ccccc2)C(=O)c2ccccc21 | inactive | inactive | inactive | inactive | inactive | inactive | inactive | inactive | 
CCCSCNC1=CC(=O)c2ccccc2C1=O | inactive | inactive | inactive | inactive | inactive | inactive | inactive | inactive | 
COc1ccc(SCNC2=CC(=O)c3ccccc3C2=O)cc1 | inactive | inactive | inactive | inactive | inactive | inactive | inactive | inactive | 
